Columns and labels:
[1] = test system: streptococcal antigen (Dnase-B) in the skin; assay: LSAB stain (antibody to Streptozyme) of a biopsy from the treated psoriatic lesion site; type: in vivo, streptococci; conditions: person with severe psoriasis; pump spray with 40% by weight isopropyl myristate in alcohol carrier, on one lesion twice a day for two weeks; stain positive before treatment
Protocol: Anti-body levels of many such patients, to streptococcal exoenzymes, deoxyribonuclease B, hyaluronidase, streptolysin O, and Streptozyme (a commercial product made from streptococci and containing Dnase-B as one of its constituents., a registered trademark of Carter-Wallace, Inc. and available from Wampole Labs, of Cranbury, N.J.), when measured will be found to be elevated prior to the treatment in accordance with this invention. The presence of these antigens are tested for by using a primary rabbit polyclonal antibody to, e.g., Streptozyme® with a linked streptavidin biotin alkaline phosphatase (“LSAB”) amplification stain, available from Dako, of Carpinteria, Calif. A prominent red stain on the biopsied skin indicates the presence of the antigens.
A person, suffering from severe psoriasis came for treatment. Their psoriasis had become severe at a time about 20 years earlier when they had recurring sore throats and tonsilitis. Their sore throats had ceased, but their psoriasis persisted. A blood sample was taken to measure […] antibody level to Dnase-B, a streptococcal exoenzyme; It was determined that they were a streptococcal carrier. A 4 mm punch biopsy was taken at the same time from a psoriatic plaque on their posterior thigh. The biopsy was first exposed to an antibody to Streptozyme®, and stained using the LSAB test. […]

psoriatic lesion = assay: Topical treatment of a psoriatic lesion in a patient, appearance of the lesion; type: in vivo, human; conditions: person with severe psoriasis; pump spray with 40% by weight isopropyl myristate in alcohol carrier, on one lesion twice a day for two weeks
Protocol: A person, suffering from severe psoriasis came for treatment. Their psoriasis had become severe at a time about 20 years earlier when they had recurring sore throats and tonsilitis. Their sore throats had ceased, but their psoriasis persisted. A blood sample was taken to measure […] antibody level to Dnase-B, a streptococcal exoenzyme; It was determined that they were a streptococcal carrier. A 4 mm punch biopsy was taken at the same time from a psoriatic plaque on their posterior thigh. The biopsy was first exposed to an antibody to Streptozyme®, and stained using the LSAB test.
The patient was provided with a pump spray bottle containing 40% by weight of isopropyl myristate in an alcohol carrier, and instructed to spray the liquid on one particular lesion twice a day for two weeks. […] That site was biopsied and given the LSAB test, as before. The stain was negative, indicating the cleansing of the streptococcal antigen from the skin that had been treated with the 40% isopropyl myristate spray, and it was accompanied by a clearing of the lesion.
The composition in each case is liberally applied and the patient otherwise is permitted to carry out the usual hygiene, showering or bathing. […]

In the case of `CCCCCCCCCCCCCC(=O)OC(C)C` [isopropyl myristate], the “LSAB stain for streptococcal antigen in the biopsied treated site” value [1] is reported as “negative” and the “clearing of the sprayed lesion” value (psoriatic lesion) is reported as “substantially clear of the disease”.

— US20030215397A1, “Method of treatment of skin diseases related to microbial antigens in the skin” (priority 2002, published 2003)
